# Source: patent US5789604A, “Isolation, characterization and structures of new antibiotic components produced by fungal culture 07F275” (priority 1993, dated 1998)
# Key:
# [1] = tested on: Erysiphe graminis f.sp. tritici; experiment: in vivo evaluation as fungicidal agents, wheat powdery mildew
# Description: (§1) in Vivo Evaluation as Fungicidal Agents (Table 2)
# (§2) Compounds are dissolved in acetone, diluted to the desired concentration with water and surfactant and sprayed onto the test plants. After drying, the test plants are treated with fungal inoculum. When disease symptom development is optimal, plants are rated for disease control. Inoculated untreated plants, solvent/surfactant treated plants and plants treated with a reference standard are used for comparison.
# WPM Wheat powdery mildew
# (§3) Compounds are rated for control of each disease according to the rating scale shown below: […]
# [2] = tested on: Leptosphaeria nodurum; experiment: in vivo evaluation as fungicidal agents, wheat septoria nodorum
# [3] = tested on: Alternaria solani; experiment: in vivo evaluation as fungicidal agents, tomato early blight
# Description: as §1, §2, §3
# [4] = tested on: Venturia inaequalis; experiment: in vivo evaluation as fungicidal agents, apple scab
# Description: as §1, §2
# AS Apple scab Venturia inaequalis
# as §3
# [5] = tested on: Pyricularia oryzae; conditions: in vivo
# [6] = tested on: Psudocercosporella herpotrichoides; experiment: in vitro inhibition of mycelial growth, PSDCHE; format: cell-based
# Description: (§4) in Vitro Evaluation of the Inhibition of the Mycelial Growth by Target (Table 3)
# (§5) Severe soilborne diseases such as damping off, seedling blight, crown rot, and root rot, among others are caused by certain plant pathogenic fungi. An in Vitro assay is conducted to determine whether test compounds will inhibit the mycelial growth of said fungi. Pathogens, the method of testing, and the rating system used are reported below.
# (§6) General Procedure for the in Vitro Fungicide Screen Assay fungi included the following plant pathogens: FUSOXC Fusarium oxysporum Schlechtend: Fr.f.sp. cucumerinim J. H. Owen
# (§7) PSDCHE Psudocercosporella herpotrichoides Deighton
# (§8) The test compound (2.5-10 mg) is dissolved in 0.5 ml acetone, diluted with 4.5 ml sterile deionized water, and mixed with 95 ml of an autoclaved and partially cooled, chemically defined agar medium in a 250 ml flask. Test compounds that are insoluble are prepared as a fine suspension ultrasonically or with a glass tissue grinder, before addition to the medium. The chemically defined medium (CDM) used in these experiments is as follows:
# (§9) CDM is sterilized by autoclaving or by filtration through a […]
# (§10) The mixture of test compound and agar medium as described above is poured into several 100 mm×15 mm sterile plastic plates and allowed to solidify. The surface of each plate is inoculated with a single disc of mycelium and agar cut with an 8 mm diameter cork borer from actively growing cultures of assay fungi on a chemically defined agar medium. The plates are incubated at room temperature. Growth inhibition is determined when the mycelial growth on unamended control media has reached the edge of the petri plates. The time interval varies depending on the growth rate of the fungus. Each colony diameter is measured and compared with the untreated control and the percent inhibition is calculated as follows: [formula]
# (§11) Each test includes a solvent blank consisting of the formulation without a test compound in addition to the untreated control.
# [7] = tested on: Rhizoctonia solani Kuehn AG1 1A; experiment: in vitro inhibition of mycelial growth, RHIZSO; format: cell-based
# Description: as §4, §5, §6
# (§12) RHIZSO Rhizoctonia solani Kuehn AG1 1A
# as §8, §9, §10, §11
# [8] = tested on: Fusarium oxysporum Schlechtend: Fr.f.sp. cucumerinim; experiment: in vitro inhibition of mycelial growth, FUSOXC; format: cell-based
# Description: as §4, §5, §6, §8, §9, §10, §11
# [9] = tested on: Botrytis cinerea; experiment: in vivo evaluation as fungicidal agents, pepper botrytis
# Description: as §1, §2
# PB Pepper botrytis Botrytis cinerea
# as §3
# [10] = tested on: Cercospora beticola; experiment: in vivo evaluation as fungicidal agents, sugar beet cercospora
# Description: as §1, §2
# SBC Sugar beet cercospora
# as §3
# [11] = tested on: Plasmopara viticola; experiment: in vivo evaluation as fungicidal agents, grape downy mildew; conditions: for disease control rating GDM: grape downy mildew
# Description: as §1, §2, §3
# [12] = tested on: Pythium ultimam; experiment: in vitro inhibition of mycelial growth, PYTHUL; format: cell-based; conditions: for activity against Pythium: in vitro
# Description: as §4, §5, §6
# PYTHUL Pythium ultimam Trow
# as §8, §9, §10, §11
# [13] = tested on: other fungi; experiment: in vitro inhibition of mycelial growth, other fungi; format: cell-based
# Description: as §4, §5, §6, §7, §12
# The test compound (2.5-10 mg) is dissolved in 0.5 ml acetone, diluted with 4.5 ml sterile deionized water, and mixed with 95 ml of an autoclaved and partially cooled, chemically defined agar medium in a 250 ml flask. […]
# The mixture of test compound and agar medium as described above is poured into several 100 mm×15 mm sterile plastic plates and allowed to solidify. […] Growth inhibition is determined when the mycelial growth on unamended control media has reached the edge of the petri plates. […] Each colony diameter is measured and compared with the untreated control and the percent inhibition is calculated as follows: [formula]
smiles,measurement,setting,value
O=C1[C@@H]2O[C@@H]2C2(Oc3cccc4cccc(c34)O2)[C@]23O[C@]12[C@H](O)C=CC3=O [07F275sigma],disease control rating WPM,[1]; 12.5 ppm,0 (0)
same,disease control rating WPM,[1]; 50.0 ppm,0 (0)
same,disease control rating WPM,[1]; 200.0 ppm,0 (0)
same,disease control rating WSN,[2]; 12.5 ppm,0 (0)
same,disease control rating WSN,[2]; 50.0 ppm,0 (0)
same,disease control rating WSN,[2]; 200.0 ppm,0 (0)
same,disease control rating TEB,[3]; 12.5 ppm,0 (0)
same,disease control rating TEB,[3]; 50.0 ppm,0 (0)
same,disease control rating TEB,[3]; 200.0 ppm,0 (0)
same,disease control rating AS,[4]; 12.5 ppm,0 (0)
same,disease control rating AS,[4]; 50.0 ppm,0 (0)
same,disease control rating AS,[4]; 200.0 ppm,0 (0)
same,"disease control, RB",[5],Little to no control
same,"reduction of disease severity, RB",[5],about 85%
same,mycelial inhibition PSDCHE,[6]; 1.0 ppm,1
same,mycelial inhibition PSDCHE,[6]; 10.0 ppm,1
same,mycelial inhibition PSDCHE,[6]; 25.0 ppm,1
same,mycelial inhibition RHIZSO,[7]; 1.0 ppm,1
same,mycelial inhibition RHIZSO,[7]; 10.0 ppm,1
same,mycelial inhibition RHIZSO,[7]; 25.0 ppm,1
same,mycelial inhibition FUSOXC,[8]; 1.0 ppm,0
same,mycelial inhibition FUSOXC,[8]; 10.0 ppm,0
same,mycelial inhibition FUSOXC,[8]; 25.0 ppm,0
same,disease control rating PB,[9]; 12.5 ppm,0 (0)
same,disease control rating PB,[9]; 50.0 ppm,0 (0)
same,disease control rating PB,[9]; 200.0 ppm,0 (0)
same,disease control rating SBC,[10]; 12.5 ppm,0 (0)
same,disease control rating SBC,[10]; 50.0 ppm,0 (0)
same,disease control rating SBC,[10]; 200.0 ppm,0 (0)
same,disease control rating GDM,[11]; 12.5 ppm,0 (0)
same,disease control rating GDM,[11]; 50.0 ppm,4 (45-59)
same,disease control rating GDM,[11]; 200.0 ppm,6 (75-89)
same,"reduction of disease severity, GDM","[11]; greenhouse test, 200 ppm",about 85%
same,"disease control, GDM","[11]; greenhouse test, dosages lower than 200 ppm",Little to no control
same,mycelial inhibition PYTHUL,[12]; 1.0 ppm,3
same,mycelial inhibition PYTHUL,[12]; 10.0 ppm,7
same,activity against Pythium,[12]; 10 ppm,active
same,mycelial inhibition PYTHUL,[12]; 25.0 ppm,7
same,activity against Pythium,[12]; dosages lower than 10 ppm,not at lower dosages
same,activity against other fungi in vitro,[13],Little or no activity
